Measurements from US20220184222A1, “BICYCLE TOXIN CONJUGATES AND USES THEREOF” (BicycleTx Limited, priority 2019, published 2022).
Values joined by “and” are separate entries in the source; they are usually repeats but may differ in a detail not shown here. Identical values can stand only once.

System: PC-3 xenograft
Experiment: In vivo efficacy in PC-3 xenograft, male Balb/c nude mice (Example 3)
Parameters: species or system Mus Musculus
Experimental: The objective of the research is to evaluate the in vivo anti-tumor efficacy of test articles in treatment of PC-3 xenograft in Balb/c nude mice.
The tumor cells were maintained in F-12K medium supplemented with 10% heat inactivated fetal bovine serum at 37° C. in an atmosphere of 5% CO2 in air. The tumor cells were routinely subcultured twice weekly. The cells growing in an exponential growth phase were harvested and counted for tumor inoculation.
Each mouse was inoculated subcutaneously at the right flank with PC-3 tumor cells (10×10^6) in 0.2 ml of PBS for tumor development. 52 animals were randomized when the average tumor volume reached 454 mm^3. The test article administration and the animal numbers in each group were shown in the experimental design table.
The major endpoint was to see if the tumor growth could be delayed or mice could be cured. Tumor volume was measured three times weekly in two dimensions using a caliper, and the volume was expressed in mm3 using the formula: V=0.5 a×b^2 where a and b are the long and short diameters of the tumor, respectively. The tumor size was then used for calculations of T/C value. The T/C value (in percent) is an indication of antitumor effectiveness; T and C are the mean volumes of the treated and control groups, respectively, on a given day.
TGI was calculated for each group using the formula: TGI (%)=[1−(Ti−T0)/(Vi−V0)]×100; Ti is the average tumor volume of a treatment group on a given day, T0 is the average tumor volume of the treatment group on the day of treatment start, Vi is the average tumor volume of the vehicle control group on the same day with Ti, and V0 is the average tumor volume of the vehicle group on the day of treatment start.
Tumor growth inhibition rate for test articles in the PC-3 xenograft model was calculated based on tumor volume measurements at day 20 after the start of the treatment.

[1] = 15 mpk i.v. qw (treatment suspended after the first dosing), day 20

SMILES: CC(=O)O[C@@]12CO[C@@H]1C[C@H](O)[C@@]1(C)C(=O)[C@H](O)C3=C(C)[C@@H](OC(=O)[C@H](O)[C@@H](NC(=O)OC(C)(C)C)c4ccccc4)C[C@@](O)([C@@H](OC(=O)c4ccccc4)[C@H]21)C3(C)C [Docetaxel, reference compound]
- tumor relapse after ceasing the treatment (15 mg/kg qw): obvious tumor relapse
- animal body weight loss (15 mg/kg qw, after the first dosing): severe animal body weight loss
- Tumor volume (15 mpk i.v. qw (treatment suspended after the first dosing), day 0): 453 mm^3
- Tumor volume (15 mpk i.v. qw (treatment suspended after the first dosing), day 2): 584 mm^3
- Tumor volume (15 mpk i.v. qw (treatment suspended after the first dosing), day 4): 632 mm^3
- Tumor volume (15 mpk i.v. qw (treatment suspended after the first dosing), day 6): 636 mm^3
- Tumor volume (15 mpk i.v. qw (treatment suspended after the first dosing), day 8): 568 mm^3
- Tumor volume (15 mpk i.v. qw (treatment suspended after the first dosing), day 10): 408 mm^3
- Tumor volume (15 mpk i.v. qw (treatment suspended after the first dosing), day 13): 374 mm^3
- Tumor volume (15 mpk i.v. qw (treatment suspended after the first dosing), day 15): 388 mm^3
- Tumor volume (15 mpk i.v. qw (treatment suspended after the first dosing), day 17): 361 mm^3
- T/C [1]: 17.7%
- TGI [1]: 101.8%
- Tumor volume [1]: 419 mm^3 and 419 ± 31 mm^3
